According to patent publication US6849658B2, “Biaromatic compounds and pharmaceutical and cosmetic compositions comprising them” (Galderma Research & Development, priority 1997, dated 2005):

Row | Compound | melting point [°C]
1 | CCOC(=O)c1ccc(C#CCc2cc(C(C)(C)C)cc(C(C)(C)C)c2O)cc1 [Example 16, Ethyl 4-[3-(3,5-di-tert-butyl-2-hydroxyphenyl)prop-1-ynyl]benzoate] | 113 to 115
2 | CC1(C)CCC(C)(C)c2c(C(O)C#Cc3ccc(C(=O)O)cc3)cc(-c3ccccc3)cc21 (stereo not shown) | 250
3 | COCOc1c(C(O)C#Cc2ccc(C(=O)O)cc2)cc(C(C)(C)C)cc1C(C)(C)C (stereo not shown) [Example 14, 4-[3-(3,5-Di-tert-butyl-2-(methoxymethoxy)phenyl)-3-hydroxyprop-1-ynyl]benzoic Acid] | 197
4 | CC1(C)CCSc2c(CC#Cc3ccc(C(=O)O)c(O)c3)cccc21 [Example 6, 2-Hydroxy-4-[3-(4,4-dimethylthiochroman-8-yl)prop-1-ynyl]benzoic Acid] | 190 to 191
5 | CC1(C)CCSc2cccc(C(O)C#Cc3ccc(C(=O)O)cc3)c21 (stereo not shown) [Example 11, 4-[3-(4,4-Dimethylthiochroman-5-yl)-3-hydroxyprop-1-ynyl]benzoic Acid] | 198

Next, values leading:

Row | melting point [°C] | Compound
6 | 229 to 231 | COc1c(CC#Cc2ccc(C(=O)O)cc2)cc(-c2ccccc2)cc1C(C)(C)C [Example 31, 4-[3-(5-tert-Butyl-4-methoxybiphenyl-3-yl)prop-1-ynyl]benzoic Acid]
7 | 208 to 209 | COc1c(C(O)C#Cc2ccc(C(=O)O)cc2)cc(C(C)(C)C)cc1C(C)(C)C (stereo not shown) [Example 18, 4-[3-(3,5-Di-tert-butyl-2-methoxyphenyl)-3-hydroxyprop-1-ynyl]benzoic Acid]
8 | 165 to 167 | COc1c(C(O)C#Cc2ccc(C(=O)O)cc2)cc(-c2ccccc2)cc1C(C)(C)C (stereo not shown) [Example 23, 4-[3-(5-tert-Butyl-4-methoxybiphenyl-3-yl)-3-hydroxyprop-1-ynyl]benzoic Acid]
9 | 162 to 164 | COc1c(C(C#Cc2ccc(C(=O)O)cc2)OC)cc(C(C)(C)C)cc1C(C)(C)C (stereo not shown) [Example 25, 4-[3-(3,5-Di-tert-butyl-2-methoxyphenyl)-3-methoxyprop-1-ynyl]benzoic Acid]
10 | 237 to 239 | COc1c(CC#Cc2ccc(C(=O)O)cc2)cc(C(C)(C)C)cc1C(C)(C)C [Example 19, 4-[3-(3,5-Di-tert-butyl-2-methoxyphenyl)prop-1-ynyl]benzoic Acid]
